# Assay results as given in publication PMC9403976, “Elucidating the path to Plasmodium prolyl-tRNA synthetase inhibitors that overcome halofuginone resistance” (Nature Communications, 2022).
# Where “and” joins values, the source holds several entries; their conditions need not be identical. Equal values may be shown once. Read-outs that look alike come from different tables or passages of the source.
# Experiments:
# HsProRS = HsProRS (Homo sapiens, UniProt P07814); assay: TR-FRET ligand displacement assay with tracer MAT379 (CoraFluor-1-Halo and anti-His6 antibody formats); assay type: binding; parameters: made in house; host or cells: E. coli SoluBL-21; conditions: for TR-FRET dose-response, normalized signal (SI Fig 11): individual replicates
# PfcProRS = target: T1, PfcProRS (Plasmodium falciparum, UniProt Q8I5R7); assay type: binding; conditions: for Normalized response, dose-response replicates (SI Fig 14): replicates 1-3; for dose-response signal (normalized), SI Fig 8: single replicates
# T1 construct: made in house; host or cells: E. coli SoluBL-21
# P. falciparum Dd2-2D4 = assay: P. falciparum asexual blood stage (ABS) growth assay, SYBR Green, 72 h, wild-type parasites; assay type: cell-based, Plasmodium falciparum; conditions: Plasmodium falciparum, DD2; SI Fig 16b; values on -log scale; read-out: ABS - Dd2-2D4 (converted)
# HsProRS, sequence (P07814 996-1512): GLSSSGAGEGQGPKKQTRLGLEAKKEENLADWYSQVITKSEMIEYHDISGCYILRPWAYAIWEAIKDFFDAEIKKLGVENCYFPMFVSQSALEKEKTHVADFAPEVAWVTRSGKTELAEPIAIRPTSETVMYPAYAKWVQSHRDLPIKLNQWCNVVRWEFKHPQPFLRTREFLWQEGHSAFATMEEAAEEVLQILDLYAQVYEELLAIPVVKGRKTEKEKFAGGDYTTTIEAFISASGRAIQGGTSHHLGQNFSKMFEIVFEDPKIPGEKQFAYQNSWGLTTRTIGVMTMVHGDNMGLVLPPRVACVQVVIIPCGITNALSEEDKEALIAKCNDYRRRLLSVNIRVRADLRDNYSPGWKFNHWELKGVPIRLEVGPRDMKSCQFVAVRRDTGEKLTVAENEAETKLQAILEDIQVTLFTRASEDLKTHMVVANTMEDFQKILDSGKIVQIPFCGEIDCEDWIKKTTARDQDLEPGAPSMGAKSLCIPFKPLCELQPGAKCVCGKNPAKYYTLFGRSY
# T1 sequence (Q8I5R7 249-746): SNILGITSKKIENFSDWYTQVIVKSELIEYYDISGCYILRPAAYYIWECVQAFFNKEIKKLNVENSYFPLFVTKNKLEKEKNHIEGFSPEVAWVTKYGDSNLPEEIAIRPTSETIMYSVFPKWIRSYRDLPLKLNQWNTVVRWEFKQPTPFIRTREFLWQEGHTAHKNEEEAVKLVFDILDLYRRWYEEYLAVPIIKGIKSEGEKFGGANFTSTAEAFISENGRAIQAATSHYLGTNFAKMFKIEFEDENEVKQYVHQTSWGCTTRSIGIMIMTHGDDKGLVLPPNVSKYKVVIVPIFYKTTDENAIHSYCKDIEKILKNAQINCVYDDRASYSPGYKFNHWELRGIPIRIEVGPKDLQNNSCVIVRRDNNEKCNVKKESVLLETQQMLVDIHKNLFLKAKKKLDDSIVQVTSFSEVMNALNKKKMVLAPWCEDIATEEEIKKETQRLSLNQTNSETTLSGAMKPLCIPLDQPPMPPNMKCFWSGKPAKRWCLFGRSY
smiles,measurement,setting,value
O=c1[nH]c2nccnc2c(=O)n1C1Cc2ccccc2C1 [compound 47],IC50,HsProRS,> 10 µM
same,Kd,"HsProRS; HsProRS (KD [nM]) + 100 μM proline mean, + 100 μM proline",2650 nM
same,HsProRS % signal at 10 μM,"HsProRS; no added proline/ATP (-), 10 μM",79.5%
same,"Normalized response, dose-response replicates (SI Fig 14)",PfcProRS; Log[inhibitor] (M) -5.000,3.53E-01 and 3.73E-01 and 3.10E-01
same,"Normalized response, dose-response replicates (SI Fig 14)",PfcProRS; Log[inhibitor] (M) -5.301,5.89E-01 and 4.94E-01 and 3.58E-01
same,"Normalized response, dose-response replicates (SI Fig 14)",PfcProRS; Log[inhibitor] (M) -5.601,7.17E-01 and 7.23E-01 and 6.31E-01
same,"Normalized response, dose-response replicates (SI Fig 14)",PfcProRS; Log[inhibitor] (M) -5.904,1.01E+00 and 8.61E-01 and 7.86E-01
same,"Normalized response, dose-response replicates (SI Fig 14)",PfcProRS; Log[inhibitor] (M) -6.208,1.02E+00 and 1.03E+00 and 9.13E-01
same,"Normalized response, dose-response replicates (SI Fig 14)",PfcProRS; Log[inhibitor] (M) -6.509,9.57E-01 and 9.63E-01 and 9.85E-01
same,"Normalized response, dose-response replicates (SI Fig 14)",PfcProRS; Log[inhibitor] (M) -6.796,1.08E+00 and 9.96E-01 and 1.07E+00
same,"Normalized response, dose-response replicates (SI Fig 14)",PfcProRS; Log[inhibitor] (M) -7.108,9.59E-01 and 1.12E+00 and 1.15E+00
same,"Normalized response, dose-response replicates (SI Fig 14)",PfcProRS; Log[inhibitor] (M) -7.409,1.11E+00 and 1.34E+00 and 1.10E+00
same,"Normalized response, dose-response replicates (SI Fig 14)",PfcProRS; Log[inhibitor] (M) -7.710,1.07E+00 (2×) and 1.12E+00
same,"Normalized response, dose-response replicates (SI Fig 14)",PfcProRS; Log[inhibitor] (M) -8.000,1.02E+00 and 1.00E+00 and 1.01E+00
same,"Normalized response, dose-response replicates (SI Fig 14)",PfcProRS; Log[inhibitor] (M) -8.301,1.13E+00 and 1.06E+00 and 1.10E+00
same,"Normalized response, dose-response replicates (SI Fig 14)",PfcProRS; Log[inhibitor] (M) -8.602,1.07E+00 and 9.89E-01 and 9.49E-01
same,"Normalized response, dose-response replicates (SI Fig 14)",PfcProRS; Log[inhibitor] (M) -9.000,9.68E-01 and 9.48E-01 and 1.08E+00
same,"Normalized response, dose-response replicates (SI Fig 14)",PfcProRS; Log[inhibitor] (M) -9.301,9.08E-01 and 1.04E+00 and 1.01E+00
same,EC50,P. falciparum Dd2-2D4,11.1 µM
O=C(Nc1nccnc1C(=O)NC1Cc2ccccc2C1)c1ccccc1 [compound 21],Kd,"HsProRS; HsProRS (KD [nM]) mean, no added proline/ATP (-)",7830 nM
same,Kd,"HsProRS; HsProRS - best Kd, SI Fig 16a, values on -log scale",140 nM
same,"normalized TR-FRET ligand displacement signal, dose-response replicates (SI Fig 6)",HsProRS; Log[inhibitor] (M) -5.000,5.46E-01 and 5.55E-01 and 4.94E-01
same,"TR-FRET dose-response, normalized signal (SI Fig 11)",HsProRS; Log[inhibitor] (M) -5.000,4.76E-01 and 4.38E-01 and 4.70E-01
same,"normalized TR-FRET ligand displacement signal, dose-response replicates (SI Fig 6)",HsProRS; Log[inhibitor] (M) -5.301,7.40E-01 and 7.43E-01 and 7.80E-01
same,"TR-FRET dose-response, normalized signal (SI Fig 11)",HsProRS; Log[inhibitor] (M) -5.301,6.10E-01 and 6.26E-01 and 6.30E-01
same,"normalized TR-FRET ligand displacement signal, dose-response replicates (SI Fig 6)",HsProRS; Log[inhibitor] (M) -5.601,9.19E-01 and 8.75E-01 and 9.42E-01
same,"TR-FRET dose-response, normalized signal (SI Fig 11)",HsProRS; Log[inhibitor] (M) -5.601,7.50E-01 and 7.65E-01 and 7.70E-01
same,"normalized TR-FRET ligand displacement signal, dose-response replicates (SI Fig 6)",HsProRS; Log[inhibitor] (M) -5.904,9.17E-01 and 1.01E+00 and 8.04E-01
same,"TR-FRET dose-response, normalized signal (SI Fig 11)",HsProRS; Log[inhibitor] (M) -5.904,8.93E-01 and 9.01E-01 and 8.63E-01
same,"normalized TR-FRET ligand displacement signal, dose-response replicates (SI Fig 6)",HsProRS; Log[inhibitor] (M) -6.208,9.67E-01 and 9.54E-01 and 1.10E+00
same,"TR-FRET dose-response, normalized signal (SI Fig 11)",HsProRS; Log[inhibitor] (M) -6.208,8.73E-01 and 9.00E-01 and 9.32E-01
same,"normalized TR-FRET ligand displacement signal, dose-response replicates (SI Fig 6)",HsProRS; Log[inhibitor] (M) -6.509,9.94E-01 and 9.87E-01 and 9.37E-01
same,"TR-FRET dose-response, normalized signal (SI Fig 11)",HsProRS; Log[inhibitor] (M) -6.509,9.94E-01 and 8.74E-01 and 9.48E-01
same,"normalized TR-FRET ligand displacement signal, dose-response replicates (SI Fig 6)",HsProRS; Log[inhibitor] (M) -6.796,1.04E+00 (2×) and 9.65E-01
same,"TR-FRET dose-response, normalized signal (SI Fig 11)",HsProRS; Log[inhibitor] (M) -6.796,9.17E-01 and 9.74E-01 and 9.27E-01
same,"normalized TR-FRET ligand displacement signal, dose-response replicates (SI Fig 6)",HsProRS; Log[inhibitor] (M) -7.108,1.01E+00 and 1.08E+00 and 1.09E+00
same,"TR-FRET dose-response, normalized signal (SI Fig 11)",HsProRS; Log[inhibitor] (M) -7.108,9.75E-01 and 8.96E-01 and 1.01E+00
same,"normalized TR-FRET ligand displacement signal, dose-response replicates (SI Fig 6)",HsProRS; Log[inhibitor] (M) -7.409,1.16E+00 and 9.90E-01 and 9.46E-01
same,"TR-FRET dose-response, normalized signal (SI Fig 11)",HsProRS; Log[inhibitor] (M) -7.409,9.43E-01 and 9.53E-01 and 9.38E-01
same,"normalized TR-FRET ligand displacement signal, dose-response replicates (SI Fig 6)",HsProRS; Log[inhibitor] (M) -7.710,1.13E+00 and 9.28E-01 and 1.00E+00
same,"TR-FRET dose-response, normalized signal (SI Fig 11)",HsProRS; Log[inhibitor] (M) -7.710,1.01E+00 and 9.57E-01 and 9.99E-01
same,"normalized TR-FRET ligand displacement signal, dose-response replicates (SI Fig 6)",HsProRS; Log[inhibitor] (M) -8.000,1.06E+00 and 9.95E-01 and 9.77E-01
same,"TR-FRET dose-response, normalized signal (SI Fig 11)",HsProRS; Log[inhibitor] (M) -8.000,9.75E-01 and 9.47E-01 and 9.43E-01
same,"normalized TR-FRET ligand displacement signal, dose-response replicates (SI Fig 6)",HsProRS; Log[inhibitor] (M) -8.301,9.85E-01 and 1.04E+00 and 1.05E+00
same,"TR-FRET dose-response, normalized signal (SI Fig 11)",HsProRS; Log[inhibitor] (M) -8.301,8.99E-01 and 9.31E-01 and 9.94E-01
same,"normalized TR-FRET ligand displacement signal, dose-response replicates (SI Fig 6)",HsProRS; Log[inhibitor] (M) -8.602,9.47E-01 and 9.26E-01 and 9.87E-01
same,"TR-FRET dose-response, normalized signal (SI Fig 11)",HsProRS; Log[inhibitor] (M) -8.602,9.70E-01 and 9.30E-01 and 9.54E-01
same,"normalized TR-FRET ligand displacement signal, dose-response replicates (SI Fig 6)",HsProRS; Log[inhibitor] (M) -9.000,9.16E-01 and 9.83E-01 and 9.58E-01
same,"TR-FRET dose-response, normalized signal (SI Fig 11)",HsProRS; Log[inhibitor] (M) -9.000,9.06E-01 and 1.03E+00 and 9.30E-01
same,"normalized TR-FRET ligand displacement signal, dose-response replicates (SI Fig 6)",HsProRS; Log[inhibitor] (M) -9.301,8.87E-01 and 1.01E+00 (2×)
same,"TR-FRET dose-response, normalized signal (SI Fig 11)",HsProRS; Log[inhibitor] (M) -9.301,9.47E-01 and 9.42E-01 and 9.85E-01
same,"dose-response signal (normalized), SI Fig 8",PfcProRS; Log[inhibitor] (M) -5.000,2.91E-01 and 3.96E-01 and 3.40E-01
same,"dose-response signal (normalized), SI Fig 8",PfcProRS; Log[inhibitor] (M) -5.301,6.52E-01 and 5.68E-01 and 6.33E-01
same,"dose-response signal (normalized), SI Fig 8",PfcProRS; Log[inhibitor] (M) -5.601,7.76E-01 and 6.88E-01 and 8.76E-01
same,"dose-response signal (normalized), SI Fig 8",PfcProRS; Log[inhibitor] (M) -5.904,1.01E+00 and 9.17E-01 and 9.47E-01
same,"dose-response signal (normalized), SI Fig 8",PfcProRS; Log[inhibitor] (M) -6.208,1.01E+00 and 1.00E+00 and 8.81E-01
same,"dose-response signal (normalized), SI Fig 8",PfcProRS; Log[inhibitor] (M) -6.509,9.40E-01 and 8.71E-01 and 1.01E+00
same,"dose-response signal (normalized), SI Fig 8",PfcProRS; Log[inhibitor] (M) -6.796,1.06E+00 and 9.99E-01 and 1.08E+00
same,"dose-response signal (normalized), SI Fig 8",PfcProRS; Log[inhibitor] (M) -7.108,9.00E-01 and 9.54E-01 and 9.75E-01
same,"dose-response signal (normalized), SI Fig 8",PfcProRS; Log[inhibitor] (M) -7.409,1.04E+00 and 1.03E+00 and 9.91E-01
same,"dose-response signal (normalized), SI Fig 8",PfcProRS; Log[inhibitor] (M) -7.710,9.51E-01 and 8.62E-01 and 1.00E+00
same,"dose-response signal (normalized), SI Fig 8",PfcProRS; Log[inhibitor] (M) -8.000,9.32E-01 and 1.04E+00 and 9.09E-01
same,"dose-response signal (normalized), SI Fig 8",PfcProRS; Log[inhibitor] (M) -8.301,9.87E-01 and 9.76E-01 and 8.57E-01
same,"dose-response signal (normalized), SI Fig 8",PfcProRS; Log[inhibitor] (M) -8.602,1.04E+00 (2×) and 9.76E-01
same,"dose-response signal (normalized), SI Fig 8",PfcProRS; Log[inhibitor] (M) -9.000,9.49E-01 and 9.11E-01 and 1.01E+00
same,"dose-response signal (normalized), SI Fig 8",PfcProRS; Log[inhibitor] (M) -9.301,1.10E+00 and 1.02E+00 and 1.05E+00
same,PfcProRS -- best Kd,"PfcProRS; SI Fig 16a, values on -log scale",5.845
same,EC50,P. falciparum Dd2-2D4,9.59 µM
